Values quoted from earlier work as cited in patent US20230390267A1, “TREATMENT REGIMENS FOR EARLY IDIOPATHIC PARKINSON'S DISEASE” (BIAL - PORTELA & CA., S.A., priority 2020, published 2023).

Tests used:
[1] = tested on: PD patients with motor fluctuations; conditions: cited from earlier work
[2] = tested on: PD patients with motor fluctuations; conditions: cited from earlier work; remark: listed apart in the source
[3] = tested on: MPTP treated parkinsonian primates; conditions: in vivo; cited from earlier work

## Cc1c(Cl)c(C)[n+]([O-])c(Cl)c1-c1noc(-c2cc(O)c(O)c([N+](=O)[O-])c2)n1 [opicapone, 2,5-dichloro-3-[5-(3,4-dihydroxy-5-nitrophenyl)-1,2,4-oxadiazol-3-yl]-4,6-dimethylpyridine 1-oxide]
[1]; p=0.05
  treatment difference in OFF time for opicapone 50 mg versus entacapone: 26.2 min
[1]; patients that ended open-label with opicapone 50 mg
  additional OFF-time reduction after switch from entacapone: 68 min
[2]; 3 months
  patients who reported they were improved: 76.9%
[2]; UK patients (n=95), 6 months
  patients judged as having worsened: 6.4%
  patients judged as improved since commencing treatment: 85.3%
  patients judged as showing 'no change': 8.4%
  patients much improved: 49.4%
  patients very much improved: 8.4%
[2]; opicapone 50 mg, 3 months
  patients reported as much or very much improved (CGI-C): 43%
  patients showing clinical improvement as judged by the investigators (CGI-C): 71.3%
[2]; opicapone adjunct therapy
  improvement in UPDRS ADL score: 3.0 points
  improvement in UPDRS motor score: 4.6 points
[2]; p<0.0001
  mean±SD improvement in NMSS sleep/fatigue score versus baseline: −1.3+6.3 points
  mean±SD improvement in NMSS total score versus baseline: −6.8±19.7 points
[3]
  motor function in MPTP treated parkinsonian primates: improvement in motor function
